Results taken from article PMC3034772 (Pharmaceutical research, 2010).
“And” between values parts separate entries of the source, which are not always exact repeats. Identical values can stand only once. Like-named read-outs stand apart in the source and are kept apart here.

How the values were obtained:
[1] = Charge class Q, dominant calculated charge state at pH 7.4; type: physicochemical
[2] = In combo PAMPA-BBB model, calculated log Po in situ
[3] = PAMPA; for Pm^7.4: pH 7.4
[4] = physchem
[5] = PAMPA; for Pm^7.4: pH 7.4; remark: listed apart in the source
[6] = dominant calculated concentration fraction of the drug in a charge state
[7] = difference observed minus calculated, external set, no efflux inhibition

Compound | Q (charge class) [1, 6] | log Po [3] | log Ppara [3] | Pm^7.4 [3] | log PABL [3] | also measured
CN(C)CCC=C1c2ccccc2CCc2ccccc21 [Amitriptyline] | + | −1.27 | −6.38 | 435 |  | obs–calc (log Po^in situ) ([2]; efflux inhibition mdr1a(−/−)): 0.1; obs–calc (log Po^in situ) ([2]; no efflux inhibition): −0.3 and −0.2
Clc1ccc2c(c1)C(N1CCNCC1)=Nc1ccccc1O2 [Amoxapine] | + | −2.37 | −5.98 | 289 | −3.26 | obs–calc (log Po^in situ) ([2]; no efflux inhibition): −0.4
Cc1cc(=O)n(-c2ccccc2)n1C [Antipyrine] |  | −6.14 | −6.86 |  | −4.46 | Q (charge class) [1]: 0
CNCC[C@@H](Oc1ccccc1C)c1ccccc1 [Atomoxetine] | + | −1.83 | −6.10 |  | −3.01 | obs–calc (log Po^in situ) ([2]; no efflux inhibition): 0.5; pKa [4]: 9.67
CC(NC(C)(C)C)C(=O)c1cccc(Cl)c1 (stereo not drawn) [Bupropion] | + |  |  | 101 |  | obs–calc (log Po^in situ) ([2]; no efflux inhibition): 0.9
Cn1c(=O)c2c(ncn2C)n(C)c1=O [Caffeine] | 0 |  |  | 1 |  | 
NC(=O)N1c2ccccc2C=Cc2ccccc21 [Carbamazepine] | 0 |  | −6.09 | 29 | −3.25 | obs–calc (log Po^in situ) ([2]; efflux inhibition mdr1a(−/−)): 0.6
O=C(O)COCCN1CCN(C(c2ccccc2)c2ccc(Cl)cc2)CC1 (stereo not drawn) [Cetirizine] | ± |  |  |  |  | 
CN(C)CCCN1c2ccccc2Sc2ccc(Cl)cc21 [Chlorpromazine] | + | −1.46 | −5.96 | 496 | −3.10 | obs–calc (log Po^in situ) ([2]; efflux inhibition mdr1a(−/−)): 0.2; obs–calc (log Po^in situ) ([2]; no efflux inhibition): 0.0 and 0.2
CN(C)CCCC1(c2ccc(F)cc2)OCc2cc(C#N)ccc21 (stereo not drawn) [Citalopram] | + |  |  | 99 |  | 
CN1CCN(C2=Nc3cc(Cl)ccc3Nc3ccccc32)CC1 [Clozapine] | + | −2.58 | −5.74 | 632 | −3.37 | obs–calc (log Po^in situ) ([2]; efflux inhibition mdr1a(−/−)): −0.5
COc1cc2c(c(OC)c1OC)-c1ccc(OC)c(=O)cc1[C@@H](NC(C)=O)CC2 [Colchicine] |  |  |  |  |  | Q (charge class) [1]: 0
C[C@]12C[C@H](O)[C@H]3[C@@H](CCC4=CC(=O)CC[C@@]43C)[C@@H]1CC[C@@H]2C(=O)CO [Corticosterone] | 0 |  |  |  |  | 
CN1C(=O)CN=C(c2ccccc2)c2cc(Cl)ccc21 [Diazepam] |  |  |  |  |  | Q (charge class) [1]: 0
C[C@H]1O[C@@H](O[C@H]2[C@@H](O)C[C@H](O[C@H]3[C@@H](O)C[C@H](O[C@H]4CC[C@@]5(C)[C@H](CC[C@@H]6[C@@H]5C[C@@H](O)[C@]5(C)[C@@H](C7=CC(=O)OC7)CC[C@]65O)C4)O[C@@H]3C)O[C@@H]2C)C[C@H](O)[C@@H]1O [Digoxin] |  |  |  |  |  | Q (charge class) [1]: 0
COc1ccc([C@@H]2Sc3ccccc3N(CCN(C)C)C(=O)[C@@H]2OC(C)=O)cc1 [Diltiazem] | + |  |  |  |  | 
CN(C)CCOC(c1ccccc1)c1ccccc1 [Diphenhydramine] | + |  |  |  |  | 
OCCN(CCO)c1nc(N2CCCCC2)c2nc(N(CCO)CCO)nc(N3CCCCC3)c2n1 [Dipyridamole] | 0 |  |  |  |  | 
CCC1(C)CC(=O)NC1=O (stereo not drawn) [Ethosuximide] | 0 | −5.83 | −6.87 | 1.5 |  | obs–calc (log Po^in situ) ([2]; no efflux inhibition): 0.2; pKa [4]: 9.18
COc1cc([C@@H]2c3cc4c(cc3[C@@H](O[C@@H]3O[C@@H]5CO[C@@H](C)O[C@H]5[C@H](O)[C@H]3O)[C@H]3COC(=O)[C@H]23)OCO4)cc(OC)c1O [Etoposide] | 0 | −6.17 | −6.85 | 0.6 | −4.62 | obs–calc (log Po^in situ) ([2]; efflux inhibition mdr1a(−/−)): 0.1; obs–calc (log Po^in situ) ([2]; no efflux inhibition): −0.1
CC(C)(C(=O)O)c1ccc(C(O)CCCN2CCC(C(O)(c3ccccc3)c3ccccc3)CC2)cc1 (stereo not drawn) [Fexofenadine] | ± |  |  |  |  | 
OCCN1CCN(CCCN2c3ccccc3Sc3ccc(C(F)(F)F)cc32)CC1 [Fluphenazine] | + | −2.36 | −5.54 | 1326 | −3.24 | obs–calc (log Po^in situ) ([2]; no efflux inhibition): −1.0; pKa [4]: 7.76
COc1ccc(Cl)cc1C(=O)NCCc1ccc(S(=O)(=O)NC(=O)NC2CCCCC2)cc1 [Glibenclamide] | − |  |  |  |  | Pm^7.4 [5]: 15
O=C(CCCN1CCC(O)(c2ccc(Cl)cc2)CC1)c1ccc(F)cc1 [Haloperidol] | + | −2.06 | −4.68 | 464 | −3.38 | obs–calc (log Po^in situ) ([2]; no efflux inhibition): −0.3
C[C@]12CCC(=O)C=C1CC[C@@H]1[C@@H]2[C@@H](O)C[C@@]2(C)[C@H]1CC[C@]2(O)C(=O)CO [Hydrocortisone] | 0 |  |  |  |  | 
CC(C)Cc1ccc(C(C)C(=O)O)cc1 (stereo not drawn) [Ibuprofen] | − |  |  |  |  | 

Compound | Q (charge class) [1, 6] | log Po [3] | log Ppara [3] | Pm^7.4 [3] | log PABL [3] | also measured
COc1ccc2c(c1)c(CC(=O)O)c(C)n2C(=O)c1ccc(Cl)cc1 [Indomethacin] | − | −2.67 | −5.68 | 3 | −2.67 | 
Nc1nnc(-c2cccc(Cl)c2Cl)c(N)n1 [Lamotrigine] |  |  |  |  |  | pKa [4]: 5.38
CCN(CC)CC(=O)Nc1c(C)cccc1C [Lidocaine] | + |  |  |  |  | 
CC[C@H](C)C(=O)O[C@H]1C[C@@H](C)C=C2C=C[C@H](C)[C@H](CC[C@@H](O)C[C@@H](O)CC(=O)O)[C@H]21 [Lovastatin Acid] | − |  |  |  |  | 
CN1CCN(C2=Nc3ccccc3Oc3ccc(Cl)cc32)CC1 [Loxapine] |  |  |  | 829 |  | pKa [4]: 7.78
CNCCCC12CCC(c3ccccc31)c1ccccc12 [Maprotiline] | + | −0.56 | −5.51 | 311 | −3.21 | obs–calc (log Po^in situ) ([2]; no efflux inhibition): 0.2
CCN(CC)CCNC(=O)c1cc(Cl)c(N)cc1OC [Metoclopramide] | + |  |  | 380 |  | 
CN1CCN2c3ncccc3Cc3ccccc3C2C1 (stereo not drawn) [Mirtazapine] | 0 | −2.61 | −5.87 | 579 | −3.37 | obs–calc (log Po^in situ) ([2]; no efflux inhibition): −0.2; pKa [4]: 7.91
CN1CC[C@]23c4c5ccc(O)c4O[C@H]2[C@@H](O)C=C[C@H]3[C@H]1C5 [Morphine] |  |  |  |  |  | Q (charge class) [1]: +
COc1ccc2cc([C@H](C)C(=O)O)ccc2c1 [Naproxen] | − |  |  |  |  | 
COc1ccc2c3c1O[C@H]1C(=O)CC[C@@]4(O)[C@@H](C2)N(C)CC[C@]314 [Oxycodone] |  |  |  |  |  | Q (charge class) [1]: +; pKa [4]: 9
CC(=O)O[C@H]1C(=O)[C@@]2(C)[C@H]([C@H](OC(=O)c3ccccc3)[C@]3(O)C[C@H](OC(=O)[C@H](O)[C@@H](NC(=O)c4ccccc4)c4ccccc4)C(C)=C1C3(C)C)[C@]1(OC(C)=O)CO[C@@H]1C[C@@H]2O [Paclitaxel] | 0 |  |  |  |  | obs–calc (log Po^in situ) [2, 7]: −1.9
CCCN1C[C@H](CSC)C[C@@H]2c3cccc4[nH]cc(c34)C[C@H]21 [Pergolide] | + | −1.45 | −6.20 | 315 | −3.25 | obs–calc (log Po^in situ) ([2]; no efflux inhibition): 0.4; pKa [4]: 9.45
OCCN1CCN(CCCN2c3ccccc3Sc3ccc(Cl)cc32)CC1 [Perphenazine] | + | −1.66 | −5.64 | 1612 | −3.42 | obs–calc (log Po^in situ) [2, 7]: −0.9
O=C1NC(=O)C(c2ccccc2)(c2ccccc2)N1 [Phenytoin] | 0 | −4.34 | −6.93 | 41 | −4.51 | obs–calc (log Po^in situ) ([2]; efflux inhibition mdr1a(−/−)): −0.3; obs–calc (log Po^in situ) ([2]; no efflux inhibition): −0.4 and −0.3 and −0.2
CC(=O)[C@H]1CC[C@H]2[C@@H]3CCC4=CC(=O)CC[C@]4(C)[C@H]3CC[C@]12C [Progesterone] | 0 | −3.58 | −6.20 | 263 | −3.25 | obs–calc (log Po^in situ) [2, 7]: −0.6
CC(C)NCC(O)COc1cccc2ccccc12 (stereo not drawn) [Propranolol] | + |  |  | 87 |  | 
C=C[C@H]1C[N@@]2CC[C@H]1C[C@H]2[C@H](O)c1ccnc2ccc(OC)cc12 [Quinine] | + |  |  |  |  | 
Cc1nc2n(c(=O)c1CCN1CCC(c3noc4cc(F)ccc34)CC1)CCCC2 [Risperidone] |  |  |  |  |  | Q (charge class) [1]: +; obs–calc (log Po^in situ) [2]: 0.8
CC(C)(C)NC(=O)[C@@H]1C[C@@H]2CCCC[C@@H]2CN1C[C@@H](O)[C@H](Cc1ccccc1)NC(=O)[C@H](CC(N)=O)NC(=O)c1ccc2ccccc2n1 [Saquinavir] | 0 |  |  |  |  | obs–calc (log Po^in situ) [2, 7]: −0.1; obs–calc (log Po^in situ) ([2]; efflux inhibition mdr1a(−/−)): 0.5; log Po [5]: −3.82; Pm^7.4 [5]: 114
CN[C@H]1CC[C@@H](c2ccc(Cl)c(Cl)c2)c2ccccc21 [Sertraline] | + |  |  |  |  | pKa [4]: 9.2
C[C@]12CC[C@H]3[C@@H](CCC4=CC(=O)CC[C@@]43C)[C@@H]1CC[C@@H]2O [Testosterone] |  |  |  |  |  | Q (charge class) [1]: 0
Cn1cnc2c1c(=O)[nH]c(=O)n2C [Theobromine] | 0 | −8.00 | −6.94 | 0.01 | −4.45 | obs–calc (log Po^in situ) [2, 7]: 1.1
Cn1c(=O)c2[nH]cnc2n(C)c1=O [Theophylline] |  |  |  |  |  | Q (charge class) [1]: 0
CCCCNC(=O)NS(=O)(=O)c1ccc(C)cc1 [Tolbutamide] | − |  |  |  |  | 
[D-Pen^2,5]-Enkephalin [DPDPE] |  |  |  |  |  | Q (charge class) [1]: ±
